The text below walks through data of article PMC9695012, “Diastereoselective Synthesis of Novel Spiro-Phosphacoumarins and Evaluation of Their Anti-Cancer Activity” (International Journal of Molecular Sciences, 2022).

Data set [1] deals with HuTu 80 cells. The data set can be described thus: Intracellular ROS, CellROX Deep Red flow cytometry. The conditions noted are these: for CellROX Deep Red fluorescence intensity (ROS production): control 700. The format is cell-based, human. The source says: An increase in the production of reactive oxygen species (ROS) by compounds also characterizes the development of apoptosis along the mitochondrial pathway. Mitochondria are a potential source and target of ROS. ROS leads to dysfunction of the mitochondria and, consequently, to irreversible cell damage. In this regard, the effect of the lead compound 2a in HuTu 80 cells on ROS production was investigated using a flow cytometry assay and the CellROX® Deep Red flow cytometry kit. The data presented in Figure 6 show a significant increase in CellROX® Deep Red fluorescence intensity dominated by IC50/2.
HuTu 80 cells were incubated with compound 2a at concentrations of IC50 for 24 h. ROS generation was investigated using flow cytometry assay and CellROX® Deep Red flow cytometry kit. For this HuTu 80 cells were harvested at 2000 rpm for 5 min and then washed twice with ice-cold PBS, followed by resuspension in 0.1 mL of medium without FBS, to which was added 0.2 μL of CellROX® Deep Red and incubated at 37 °C for 30 min After being washed three times, the cells were suspended in PBS, and the production of ROS in the cells was immediately monitored using a flow cytometer Guava easy Cyte, MERCK, Rahway, NJ, USA).
In general terms: A flow cytometer gives signals particle by particle.

The test system of data set [2] is Chang Liver. Briefly: cells. The conditions noted are these: Homo sapiens, read-out: IC50, Chang Liver.
Data set [3] has as its system Chang Liver. The conditions noted are these: relative to 5-fluorouracil.
The test system of data set [4] is HuTu 80. The data set can be described thus: cells. The conditions noted are these: Homo sapiens, HuTu80, read-out: IC50, HuTu 80.
Data set [5] deals with HuTu 80 cells. Briefly: Apoptosis induction, annexin V-Alexa Fluor 647 / propidium iodide flow cytometry. The class given is cell-based, human. Conditions: 24-h incubation, most active at IC50/2 (12.5 µM), early apoptosis stage. On the procedure:
Cell Culture. HuTu 80 cells at 1 × 10^6 cells/well in a final volume of 2 mL were seeded into six-well plates. After 24 h of incubation, various concentrations of compound 2a were added to wells.
Cell Apoptosis Analysis. The cells were harvested at 2000 rpm for 5 min and then washed twice with ice-cold PBS, followed by resuspension in binding buffer. Next, the samples were incubated with 5 μL of annexin V- Alexa Fluor 647 (Sigma-Aldrich, St. Louis, MO, USA) and 5 μL of propidium iodide for 15 min at room temperature in the dark. Finally, the cells were analyzed by flow cytometry (Guava easy Cyte, MERCK, Rahway, NJ, USA) within 1 h. The experiments were repeated three times.

Data set [6] concerns HuTu 80 cells. The data set can be described thus: Mitochondrial membrane potential, JC-10 flow cytometry. Conditions: IC50/2 and IC50, more pronounced at IC50/2. The format is cell-based, human. The protocol:
The possibility of apoptosis through the mitochondrial pathway was assessed by flow cytometry using the JC-10 fluorescent dye (in the Mitochondria Membrane Potential Kit). In normal cells with a high membrane potential, JC-10 accumulates in the mitochondrial matrix, where it forms aggregates with a red fluorescence. However, in apoptotic cells, a decrease in the membrane potential occurs. JC-10 diffuses from mitochondria and turns into a monomeric form, emitting a green fluorescence, which is recorded by a flow cytometer (Figure 4). […] As in the experiment with V-Alexa Fluor 647, the cytotoxic effect of compound 2a was more pronounced at IC50/2 concentration.
Cells were harvested at 2000 rpm for 5 min and then washed twice with ice-cold PBS, followed by resuspension in JC-10 (10 µg/mL) and incubation at 37 °C for 10 min. After the cells were rinsed three times and suspended in PBS, the JC-10 fluorescence was observed by flow cytometry (Guava easy Cyte, MERCK, Rahway, NJ, USA).

The next data set relates to M-HeLa. Briefly: cells. The class given is cell-based, human. Conditions: for IC50: Homo sapiens, M-HeLa, MTT, cancer cell line, three independent experiments; for SI, M-HeLa: selectivity index vs Chang liver normal cells, ns = no selectivity.
A further data set concerns MCF-7. Briefly: cells. The class given is cell-based, human. Conditions: for IC50: Homo sapiens, MCF7, MTT, cancer cell line, three independent experiments; for SI, MCF-7: selectivity index vs Chang liver normal cells, ns = no selectivity.
The test system of data set [7] is HuTu 80. The conditions noted are these: for SI, HuTu 80: selectivity index vs Chang liver normal cells, ns = no selectivity.
Data set [8] concerns HuTu 80 cells. Briefly: Cell cycle analysis by flow cytometry. The conditions noted are these: 24 h; for cells in G1/G0 phase: control 77%. The format is cell-based, human. On the procedure:
Taking into account the high potency and selectivity of the compound 2a, some additional experiments were carried out to study in more details its anti-cancer action. The mechanism of action of cytotoxic agents is often associated with cell cycle arrest, which leads to a slowing down of cell proliferation. So, we have performed a cell cycle analysis for the HuTu 80 cells using flow cytometry. […] Meanwhile, the proportion of cells in S phase decreased almost by half (8.2% vs. 4.7%).

The next data set is described as follows: Solubility in water. The class given is physicochemical. The conditions noted are these: in words; reason for exclusion from cytotoxicity studies.

As usually defined, the melting point is the temperature of the solid-liquid transition. By IC50 is commonly meant the concentration needed to halve the response being measured.

The compound `CN1c2c(c(=O)oc3ccccc23)CC12C(=O)c1ccccc1C2=O` yielded a melting point of more than 300 °C.

Consider `Cc1cc(C)c2c(c1C)OP(=O)(O)[C@@H]1CN(C)C3(C(=O)c4ccccc4C3=O)[C@H]21` [2a, (3aS,9bS)-4-hydroxy-2,6,7,9-tetramethyl-2,3,3a,9b-tetrahydrospiro[benzo [5,6][1,2]oxaphosphinino [3,4-c]pyrrole-1,2’-indene]-1’,3’-dione 4-oxide], for which the melting point was more than 300 °C. Also, in the data set with HuTu 80 cells [1] (IC50 (25 µM)), the “CellROX Deep Red fluorescence intensity (ROS production)” value worked out at 1500. Moreover, the “CellROX Deep Red fluorescence intensity (ROS production)” value in the data set on HuTu 80 cells [1] (IC50/2 (12.5 µM)) was 2000. Besides, the “effect on ROS production (in words)” value in the data set with HuTu 80 cells [1] (IC50/2 and IC50, dominated by IC50/2) was “increase in ROS production”. Further, the concentration for half-maximal inhibition (IC50) with Chang Liver [2] is more than 800 µM. Moreover, the “cytotoxicity against Chang liver normal cell line, fold lower than reference compound” value with Chang Liver [3] was “more than 10 fold”. In addition, the 50% inhibitory concentration (IC50) with HuTu 80 [4] is 25.1 ± 1.9 µM. The “induction of apoptosis (in words)” value in the data set with HuTu 80 cells [5] is “begins to induce apoptosis”. Also, the “effect on mitochondrial membrane potential (in words)” value with HuTu 80 cells [6] was “significant decrease”. In the data set with M-HeLa, the half-inhibitory concentration (IC50) came out at 52.6 ± 4.1 µM and the “SI, M-HeLa” value is more than 15. In the data set on MCF-7, this compound gave a concentration for half-maximal inhibition (IC50) of 82.3 ± 7.5 µM. Also, in the data set with HuTu 80 [7] (relative to 5-fluorouracil), the “cytotoxicity against HuTu 80 cell line, fold higher than reference 5-fluorouracil” value was approximately 2.6 fold. Moreover, the “SI, HuTu 80” value in the data set on HuTu 80 [7] was more than 32. Besides, in the data set with HuTu 80 cells [8] (12.5 and 25 µM), the “effect on cell cycle (in words)” value was “induces G0/G1 phase arrest”. The “cells in S phase” value with HuTu 80 cells [8] (IC50 (25 µM), control 8.2%) was 4.7%. The “cells in G1/G0 phase” value in the data set with HuTu 80 cells [8] (IC50 (25 µM)) was 81.0%. Also, in the data set with HuTu 80 cells [8] (IC50/2 (12.5 µM)), the “cells in G1/G0 phase” value was 79.0%.

Regarding `COc1ccc2c(c1)OP(=O)(O)[C@@H]1CN(C)C3(C(=O)c4ccccc4C3=O)[C@H]21` [2b, (3aS,9bS)-4-hydroxy-7-methoxy-2-methyl-2,3,3a,9b-tetrahydrospiro[benzo [5,6][1,2]oxaphosphinino [3,4-c]pyrrole-1,2’-indene]-1’,3’-dione 4-oxide], the half-maximal inhibitory concentration (IC50) with Chang Liver [2] is 62 ± 5.5 µM; in the data set on HuTu 80 [4], 53.4 ± 4.2 µM; with M-HeLa, 59.7 ± 4.6 µM; in the data set with MCF-7, more than 100 µM. For the same compound, the “SI, M-HeLa” value in the data set with M-HeLa came out at 1. Also, in the data set on MCF-7, the “SI, MCF-7” value was “ns”. Moreover, in the data set with HuTu 80 [7], the “SI, HuTu 80” value is reported as 1.2.

The compound `CN1C[C@@H]2[C@@H](c3c(O)c(Cl)cc(Cl)c3OP2(=O)O)C12C(=O)c1ccccc1C2=O` [2c, (3aS,9bS)-6,8-dichloro-4,9-dihydroxy-2-methyl-2,3,3a,9b-tetrahydrospiro[benzo [5,6][1,2]oxaphosphinino [3,4-c]pyrrole-1,2’-indene]-1’,3’-dione 4-oxide] returned a melting point of more than 300 °C. In the data set on Chang Liver [2], the IC50 is more than 100 µM. Also, the IC50 in the data set on HuTu 80 [4] worked out at 100 ± 8.4 µM. Moreover, in the data set with M-HeLa, the half-inhibitory concentration (IC50) is more than 100 µM and the “SI, M-HeLa” value is “ns”. For the same compound, in the data set on MCF-7, the half-inhibitory concentration (IC50) stood at 77.6 ± 6.2 µM and the “SI, MCF-7” value is recorded as “ns”. Moreover, in the data set on HuTu 80 [7], the “SI, HuTu 80” value is “ns”.

As for `CN1C[C@@H]2[C@@H](c3ccc4ccccc4c3OP2(=O)O)C12C(=O)c1ccccc1C2=O` [2d, (3a’S,11a’S)-11’-hydroxy-2’-methyl-1’,2’,3a’,11a’-tetrahydrospiro[indene-2,3’-naphtho [2’,1’:5,6][1,2]oxaphosphinino [3,4-c]pyrrole]-1,3-dione 11’-oxide], the melting point was more than 300 °C. Moreover, the IC50 in the data set on Chang Liver [2] worked out at 57 ± 4.3 µM. In addition, the IC50 in the data set on HuTu 80 [4] came out at 82.6 ± 7.6 µM. Besides, in the data set on M-HeLa, the IC50 was 60 ± 5.4 µM and the “SI, M-HeLa” value is recorded as “ns”. Moreover, in the data set on MCF-7, the 50% inhibitory concentration (IC50) is 92.2 ± 8.3 µM and the “SI, MCF-7” value is on record as “ns”. Also, the “SI, HuTu 80” value in the data set on HuTu 80 [7] is listed as “ns”.

The compound `Cc1cc(C)c2c(c1C)OP(=O)(O)[C@@H]1[C@H]3CCCN3C3(C(=O)c4ccccc4C3=O)[C@H]21` [2e, (6aS,6bR,11aS)-6-hydroxy-1,3,4-trimethyl-6a,6b,7,8,9,11a-hexahydrospiro[benzo [5,6][1,2]oxaphosphinino [3,4-a]pyrrolizine-11,2’-indene]-1’,3’-dione 6-oxide] returned a melting point of more than 300 °C. Further, the concentration for half-maximal inhibition (IC50) with Chang Liver [2] is more than 100 µM. Besides, in the data set on HuTu 80 [4], the 50% inhibitory concentration (IC50) is more than 100 µM. Moreover, in the data set with M-HeLa, the IC50 is more than 100 µM and the “SI, M-HeLa” value is “ns”. Besides, in the data set with MCF-7, the concentration for half-maximal inhibition (IC50) is more than 100 µM and the “SI, MCF-7” value is “ns”. The “SI, HuTu 80” value in the data set with HuTu 80 [7] was “ns”.

The compound `O=C1c2ccccc2C(=O)C12[C@@H]1c3ccc4ccccc4c3OP(=O)(O)[C@@H]1[C@H]1CCCN12` [2f, (8a’S,8b’R,13a’S)-8’-hydroxy-8a’,8b’,9’,10’,11’,13a’-hexahydrospiro[indene-2,13’-naphtho [2’,1’:5,6][1,2]oxaphosphinino [3,4-a]pyrrolizine]-1,3-dione 8’-oxide] yielded a melting point of more than 300 °C. For the same compound, the solubility in water result in the data set “Solubility in water” is listed as “extremely low”.

The compound `O=C1c2ccccc2C(=O)C12[C@@H]1c3ccc4cc(Br)ccc4c3OP(=O)(O)[C@@H]1[C@H]1CCCN12` [2g, (8a’S,8b’R,13a’S)-4’-bromo-8’-hydroxy-8a’,8b’,9’,10’,11’,13a’-hexahydrospiro[indene-2,13’-naphtho [2’,1’:5,6][1,2]oxaphosphinino [3,4-a]pyrrolizine]-1,3-dione 8’-oxide] displayed a melting point of more than 300 °C. Also, in “Solubility in water”, the solubility in water entry is recorded as “extremely low”.

On to `O=c1[nH]cc(F)c(=O)[nH]1` [5-fluorouracil, reference compound], for which the IC50 in the data set with HuTu 80 [4] came to 65.2 ± 5.6 µM. For the same compound, in the data set with M-HeLa, it took 62 ± 4.7 µM to reach half-maximal inhibition (IC50) and the “SI, M-HeLa” value is listed as 1.4. Besides, in the data set on MCF-7, it took 16.7 ± 1.3 µM to reach half-maximal inhibition (IC50) and the “SI, MCF-7” value turned out to be 5. Moreover, in the data set on HuTu 80 [7], the “SI, HuTu 80” value turned out to be 1.3.
